Assay [1] has as its system JAK1/TYK2 pSTAT5 (Tyr694/699) in THP-1 cell line. Put plainly: IFNa-stimulated JAK1/TYK2 pSTAT5 (Tyr694/699) inhibition cellular assay, AlphaLISA. Format: cell-based. To be noted: Homo sapiens, THP-1 cells, AlphaLISA (Assay B), read-out: Cellular_THP1_IFNa-pSTATS_TYK2. The method, boiled down: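 THP-1 cells (2e4/well in HBSS) were preincubated with compound (8 points, 6-fold steps from 10000 nM final) for 1 h at 37 °C, then stimulated with IFNa (added at 100 ng/mL) for 30 min. Lysate pSTAT5 was read by AlphaLISA at 615 nm. IC50 came from a 4-parameter fit with bottom 0 and Hill −1.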

The target in a further assay is T1, TYK2 JH2 (Homo sapiens, UniProt P29597).
T1 construct: purchased DiscoverX (KINOMEscan KdELECT service); host or cells: E. coli BL21-derived (T7 phage display) or HEK-293
Put plainly: TYK2 JH2 binding assay (KINOMEscan KdELECT competitive binding). To be noted: TYK2 JH2 domain, KINOMEscan KdELECT (Assay A); read-out: Biochemical TYK2_DiscoverX_JH2_BND_Kd. An outline of the steps: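 The assay measures displacement of DNA- or phage-tagged TYK2 pseudokinase domain from an affinity resin; compound binding lowers the amount captured, read by qPCR. Incubation lasts 1 h at room temperature.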

Setting [2] is: IFNa-stimulated pSTAT5 (Tyr694/699).

Structures are written as SMILES. Read-outs that look alike come from different tables or passages of the source. Bounds are passed on as bounds.

T1 sequence (P29597 589-875 limits assumed): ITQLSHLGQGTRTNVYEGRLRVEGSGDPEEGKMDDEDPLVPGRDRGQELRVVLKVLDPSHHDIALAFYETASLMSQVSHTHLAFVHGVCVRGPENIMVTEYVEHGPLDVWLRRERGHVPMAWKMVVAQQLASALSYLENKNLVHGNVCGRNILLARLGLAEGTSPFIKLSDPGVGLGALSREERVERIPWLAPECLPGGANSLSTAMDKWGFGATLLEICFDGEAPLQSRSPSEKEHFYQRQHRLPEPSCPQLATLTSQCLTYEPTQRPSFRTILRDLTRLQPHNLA

As to `CNc1ncc(C#Cc2cc3sc(C)cc3cn2)c2cc(NC(=O)C3CC3)ncc12` [Example 968, N-[8-(methylamino)-5-[2-(2-methylthieno[3,2-c]pyridin-6-yl)ethynyl]-2,7-naphthyridin-3-yl]cyclopropanecarboxamide], the IC50 in assay [1] (IFNa-stimulated) is ≤ 500 nM. Besides, at TYK2 JH2, the Kd is ≤ 100 nM.
For `CNc1ncc(C#Cc2ccc(N3CCOCC3)cc2F)c2cc(NC(=O)C3CC3)ncc12` [Example 969, N-[5-[2-(2-fluoro-4-morpholino-phenyl)ethynyl]-8-(methylamino)-2,7-naphthyridin-3-yl]cyclopropanecarboxamide], in that order: ≤ 500 nM and ≤ 100 nM.
The corresponding values for `CNc1ncc(C#Cc2ccc(Oc3cn(C)c(C)n3)cc2)c2cc(NC(=O)C3CC3)ncc12` [Example 970, N-(5-((4-((1,2-dimethyl-1H-imidazol-4-yl)oxy)phenyl)ethynyl)-8-(methylamino)-2,7-naphthyridin-3-yl)cyclopropanecarboxamide] are ≤ 500 nM and ≤ 100 nM.
For `CNc1ncc(C#Cc2ccc(Oc3ccn(C)n3)cc2)c2cc(NC(=O)C3CC3)ncc12` [Example 971, N-[8-(methylamino)-5-[2-[4-(1-methylpyrazol-3-yl)oxyphenyl]ethynyl]-2,7-naphthyridin-3-yl]cyclopropanecarboxamide], in that order: ≤ 500 nM and ≤ 100 nM.
With `CNc1ncc(C#Cc2ccc3c(c2)C(F)(F)C(=O)N3C)c2cc(NC(=O)C3CC3)ncc12` [Example 972, N-[5-[2-(3,3-difluoro-1-methyl-2-oxo-indolin-5-yl)ethynyl]-8-(methylamino)-2,7-naphthyridin-3-yl]cyclopropanecarboxamide], in assay [1] (IFNa-stimulated), the IC50 is ≤ 500 nM. On TYK2 JH2, the Kd is ≤ 100 nM.
For `CNc1ncc(C#Cc2cc3c(cc2F)OCCO3)c2cc(NC(=O)C3CC3)ncc12` [Example 973, N-[5-[2-(6-fluoro-2,3-dihydro-1,4-benzodioxin-7-yl)ethynyl]-8-(methylamino)-2,7-naphthyridin-3-yl]cyclopropanecarboxamide], in that order: ≤ 500 nM and ≤ 100 nM.
The corresponding values for `CNc1ncc(C#Cc2ccc3c(c2)CCC(CF)O3)c2cc(NC(=O)C3CC3)ncc12` (stereo not drawn) [Example 974, N-[5-[2-[2-(fluoromethyl)chroman-6-yl]ethynyl]-8-(methylamino)-2,7-naphthyridin-3-yl]cyclopropanecarboxamide] are ≤ 500 nM and ≤ 100 nM.
As to `CNc1ncc(C#Cc2cccc3c2SCCC3=O)c2cc(NC(=O)C3CC3)ncc12` [Example 975, N-[8-(methylamino)-5-[2-(4-oxothiochroman-8-yl)ethynyl]-2,7-naphthyridin-3-yl]cyclopropanecarboxamide], the IC50 in assay [1] (IFNa-stimulated) is ≤ 500 nM. The Kd on TYK2 JH2 is ≤ 100 nM.
For `CNc1ncc(C#Cc2ncc(OC)cc2C(F)F)c2cc(NC(=O)C3CC3)ncc12` [Example 976, N-(5-((3-(difluoromethyl)-5-methoxypyridin-2-yl)ethynyl)-8-(methylamino)-2,7-naphthyridin-3-yl)cyclopropanecarboxamide], in that order: ≤ 500 nM and ≤ 100 nM.
For `CNc1ncc(C#Cc2ccc3c(c2)OCC(C)O3)c2cc(NC(=O)C3CC3)ncc12` (stereo not drawn) [Example 977, N-[8-(methylamino)-5-[2-(2-methyl-2,3-dihydro-1,4-benzodioxin-6-yl)ethynyl]-2,7-naphthyridin-3-yl]cyclopropanecarboxamide], in that order: ≤ 500 nM and ≤ 100 nM.
The corresponding values for `CNc1ncc(C#Cc2ccc3c(c2)C=CC(C)(C)O3)c2cc(NC(=O)C3CC3)ncc12` [Example 978, N-[5-[2-(2,2-dimethylchromen-6-yl)ethynyl]-8-(methylamino)-2,7-naphthyridin-3-yl]cyclopropanecarboxamide] are ≤ 500 nM and ≤ 100 nM.
On to `CNc1ncc(C#Cc2ccnc(F)c2)c2cc(NC(=O)C3CC3)ncc12` [Example 979, N-[5-[2-(2-fluoro-4-pyridyl)ethynyl]-8-(methylamino)-2,7-naphthyridin-3-yl]cyclopropanecarboxamide], for which, in assay [1] (IFNa-stimulated), the IC50 is ≤ 500 nM. Besides, the Kd at TYK2 JH2 was ≤ 100 nM.
For `CNc1ncc(C#Cc2ccc(F)cn2)c2cc(NC(=O)C3CC3)ncc12` [Example 980, N-[5-[2-(5-fluoro-2-pyridyl)ethynyl]-8-(methylamino)-2,7-naphthyridin-3-yl]cyclopropanecarboxamide], in that order: ≤ 500 nM and ≤ 100 nM.
The corresponding values for `CNc1ncc(C#Cc2ccc3c(c2)CCC(CO)O3)c2cc(NC(=O)C3CC3)ncc12` (stereo not drawn) [Example 981] are ≤ 500 nM and ≤ 100 nM.
For `CNc1ncc(C#Cc2nccc3ccsc23)c2cc(NC(=O)C3CC3)ncc12` [Example 984, N-[8-(methylamino)-5-(2-thieno[2,3-c]pyridin-7-ylethynyl)-2,7-naphthyridin-3-yl]cyclopropanecarboxamide], in that order: ≤ 500 nM and ≤ 100 nM.
For `CNc1ncc(C#Cc2ccncc2Cl)c2cc(NC(=O)C3CC3)ncc12` [Example 985, N-[5-[2-(3-chloro-4-pyridyl)ethynyl]-8-(methylamino)-2,7-naphthyridin-3-yl]cyclopropanecarboxamide], in assay [1] (IFNa-stimulated), the IC50 was ≤ 500 nM. The Kd at TYK2 JH2 is ≤ 100 nM.
The corresponding values for `CNc1ncc(C#Cc2ccc(Oc3cn(C)cn3)cc2)c2cc(NC(=O)C3CC3)ncc12` [Example 986, N-[8-(methylamino)-5-[2-[4-(1-methylimidazol-4-yl)oxyphenyl]ethynyl]-2,7-naphthyridin-3-yl]cyclopropanecarobxmaide] are ≤ 500 nM and ≤ 100 nM.
The corresponding values for `CNc1ncc(C#Cc2ccc3c(c2)CCC(COC)O3)c2cc(NC(=O)C3CC3)ncc12` (stereo not drawn) [Example 987, N-[5-[2-[2-(methoxymethyl)chroman-6-yl]ethynyl]-8-(methylamino)-2,7-naphthyridin-3-yl]cyclopropanecarobxamide] are ≤ 500 nM and ≤ 100 nM.
For `CNc1ncc(C#Cc2cn(C)cn2)c2cc(NC(=O)C3CC3)ncc12` [Example 990, N-[8-(methylamino)-5-[2-(1-methylimidazol-4-yl)ethynyl]-2,7-naphthyridin-3-yl]cyclopropanecarboxamide], in that order: ≤ 500 nM and ≤ 100 nM.
Regarding `CNc1ncc(C#Cc2ccncc2F)c2cc(NC(=O)C3CC3)ncc12` [Example 991, N-[5-[2-(3-fluoro-4-pyridyl)ethynyl]-8-(methylamino)-2,7-naphthyridin-3-yl]cyclopropanecarboxamide], in assay [1] (IFNa-stimulated), the IC50 is ≤ 500 nM. In addition, on TYK2 JH2, the Kd is ≤ 100 nM.
The corresponding values for `CNc1ncc(C#Cc2ccnc(Cl)c2)c2cc(NC(=O)C3CC3)ncc12` [Example 992, N-[5-[2-(2-chloro-4-pyridyl)ethynyl]-8-(methylamino)-2,7-naphthyridin-3-yl]cyclopropanecarboxamide] are ≤ 500 nM and ≤ 100 nM.
For `CNc1ncc(C#Cc2ccc(OCC(F)(F)F)cn2)c2cc(NC(=O)C3CC3)ncc12` [Example 993, N-[8-(methylamino)-5-[2-[5-(2,2,2-trifluoroethoxy)-2-pyridyl]ethynyl]-2,7-naphthyridin-3-yl]cyclopropanecarboxamide], in that order: ≤ 500 nM and ≤ 100 nM.
Consider `CNc1ncc(C#Cc2ccc(Cl)cn2)c2cc(NC(=O)C3CC3)ncc12` [Example 995, N-(5-((5-chloropyridin-2-yl)ethynyl)-8-(methylamino)-2,7-naphthyridin-3-yl)cyclopropanecarboxamide], for which the IC50 in assay [1] (setting [2]) was ≤ 500 nM. Moreover, on TYK2 JH2, the Kd was ≤ 100 nM.
As for `CNc1ncc(C#Cc2ccc3nc(C(F)F)sc3c2)c2cc(NC(=O)C3CC3)ncc12` [Example 996, N-(5-((2-(difluoromethyl)benzo[d]thiazol-6-yl)ethynyl)-8-(methylamino)-2,7-naphthyridin-3-yl)cyclopropanecarboxamide], the IC50 in assay [1] (setting [2]) is ≤ 500 nM. Moreover, the Kd at TYK2 JH2 is ≤ 100 nM.
For `CNc1ncc(C#Cc2ccc3c(c2)OCO3)c2cc(NC(=O)C3CC3)ncc12` [Example 997, N-[5-[2-(1,3-benzodioxol-5-yl)ethynyl]-8-(methylamino)-2,7-naphthyridin-3-yl]cyclopropanecarboxamide], in that order: ≤ 500 nM and ≤ 100 nM.
For `CNc1ncc(C#Cc2ccc(-n3ncccc3=O)cc2)c2cc(NC(=O)C3CC3)ncc12` [Example 998, N-(8-(methylamino)-5-((4-(6-oxopyridazin-1(6H)-yl)phenyl)ethynyl)-2,7-naphthyridin-3-yl)cyclopropanecarboxamide], in that order: ≤ 500 nM and ≤ 100 nM.
On to `CNc1ncc(C#Cc2ccc(N3CCOCC3=O)cc2)c2cc(NC(=O)C3CC3)ncc12` [Example 999, N-(8-(methylamino)-5-((4-(3-oxomorpholino)phenyl)ethynyl)-2,7-naphthyridin-3-yl)cyclopropanecarboxamide], for which the IC50 in assay [1] (setting [2]) was ≤ 500 nM. Besides, the Kd at TYK2 JH2 was ≤ 100 nM.

For the origin of these results see patent US20240025906A1 (NEURON23, INC., priority 2022, published 2024).
